Experimental data from patent publication US12637453B2, “Pyrazolopyridine inhibitors of c-Jun-n-Terminal kinases and uses thereof” (Dana-Farber Cancer Institute, Inc., priority 2019, dated 2026).

Tests used:
Format in all cases: biochemical
[1] = biological target: JNK1 (Homo sapiens, UniProt P45983); experiment: IC50 assay for JNK kinase inhibition, JNK1
[2] = biological target: JNK2 (Homo sapiens, UniProt P45984); experiment: IC50 assay for JNK kinase inhibition, JNK2
[3] = biological target: JNK3 (Homo sapiens, UniProt P53779); experiment: IC50 assay for JNK kinase inhibition, JNK3
JNK3, sequence (P53779 whole entry): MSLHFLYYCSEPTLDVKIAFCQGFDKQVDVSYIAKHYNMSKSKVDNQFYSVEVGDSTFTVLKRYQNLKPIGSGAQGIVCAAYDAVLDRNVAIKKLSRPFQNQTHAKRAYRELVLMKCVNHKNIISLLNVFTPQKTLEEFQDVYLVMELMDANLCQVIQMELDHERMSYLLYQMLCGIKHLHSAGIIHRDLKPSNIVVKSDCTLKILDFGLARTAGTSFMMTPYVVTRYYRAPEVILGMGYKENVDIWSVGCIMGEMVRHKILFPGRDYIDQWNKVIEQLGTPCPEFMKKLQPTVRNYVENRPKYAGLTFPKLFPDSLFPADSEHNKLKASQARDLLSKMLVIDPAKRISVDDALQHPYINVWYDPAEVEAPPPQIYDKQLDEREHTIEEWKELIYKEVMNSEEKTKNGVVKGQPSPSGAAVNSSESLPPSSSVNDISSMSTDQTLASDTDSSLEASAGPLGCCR

JNK2, sequence (P45984 whole entry): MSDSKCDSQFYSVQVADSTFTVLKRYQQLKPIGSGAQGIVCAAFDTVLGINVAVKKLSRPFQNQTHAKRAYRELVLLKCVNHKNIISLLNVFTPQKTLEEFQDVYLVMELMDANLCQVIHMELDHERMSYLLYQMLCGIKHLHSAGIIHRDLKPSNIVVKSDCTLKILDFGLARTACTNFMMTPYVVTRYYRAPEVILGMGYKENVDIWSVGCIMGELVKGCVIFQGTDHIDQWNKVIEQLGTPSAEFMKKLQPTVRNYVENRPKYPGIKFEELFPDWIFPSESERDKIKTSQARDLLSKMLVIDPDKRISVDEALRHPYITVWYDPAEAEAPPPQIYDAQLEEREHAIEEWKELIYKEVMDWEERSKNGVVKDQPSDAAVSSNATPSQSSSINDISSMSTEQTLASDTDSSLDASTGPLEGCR
JNK1, sequence (P45983 whole entry): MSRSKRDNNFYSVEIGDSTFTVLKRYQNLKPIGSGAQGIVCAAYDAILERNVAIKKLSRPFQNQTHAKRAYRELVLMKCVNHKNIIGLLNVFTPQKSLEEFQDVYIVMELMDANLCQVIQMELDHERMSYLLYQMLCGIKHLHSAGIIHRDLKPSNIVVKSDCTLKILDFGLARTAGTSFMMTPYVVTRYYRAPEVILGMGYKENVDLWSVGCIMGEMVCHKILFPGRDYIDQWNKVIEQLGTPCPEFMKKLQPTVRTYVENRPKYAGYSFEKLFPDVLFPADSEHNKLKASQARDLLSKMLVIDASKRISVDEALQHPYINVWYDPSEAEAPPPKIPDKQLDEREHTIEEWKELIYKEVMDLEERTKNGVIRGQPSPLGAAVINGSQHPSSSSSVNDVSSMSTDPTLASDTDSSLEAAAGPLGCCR

`CN(C)C/C=C/C(=O)Nc1ccc2c(N3CC[C@H](Nc4nccc(-c5c(-c6ccccc6)nn6ccccc56)n4)C3)nccc2c1` [I-20, (S,E)-4-(dimethylamino)-N-(1-(3-((4-(2-phenylpyrazolo[1,5-a]pyridin-3-yl)pyrimidin-2-yl)amino)pyrrolidin-1-yl)isoquinolin-6-yl)but-2-enamide] showed an IC50 [1] of 168 nM, an IC50 [2] of 10 nM and an IC50 [3] of 12 nM.

`C[C@H]1CN(C(=O)c2ccc(NC(=O)CCCN(C)C)cc2)C[C@H]1Nc1nccc(-c2c(-c3ccccc3)nn3ccccc23)n1` [I-27, 4-(dimethylamino)-N-(4-((3S,4S)-3-methyl-4-((4-(2-phenylpyrazolo[1,5-a]pyridin-3-yl)pyrimidin-2-yl)amino)pyrrolidine-1-carbonyl)phenyl)butanamide] was tested, and the IC50 [1] was 2600 nM, the IC50 [2] was 99.5 nM and the IC50 [3] was 790 nM.

With `CN(C)CCCC(=O)Nc1ccc(C(=O)N2CCC[C@@H](Nc3nccc(-c4c(-c5ccccc5)nn5ccccc45)n3)C2)cc1` [I-6, (R)-4-(dimethylamino)-N-(4-(3-((4-(2-phenylpyrazolo[1,5-a]pyridin-3-yl)pyrimidin-2-yl)amino)piperidine-1-carbonyl)phenyl)butanamide] the IC50 [1] was 278 nM, the IC50 [2] was 40 nM and the IC50 [3] was 1090 nM.

`CN(C)C/C=C/C(=O)Nc1ccc(C(=O)N2CC[C@@H](Nc3nccc(-c4c(-c5ccccc5)nn5ccccc45)n3)C2)cc1` [I-7, (R,E)-4-(dimethylamino)-N-(4-(3-((4-(2-phenylpyrazolo[1,5-a]pyridin-3-yl)pyrimidin-2-yl)amino)pyrrolidine-1-carbonyl)phenyl)but-2-enamide] was tested, and the IC50 [1] was 12.5 nM, the IC50 [2] was 2.75 nM and the IC50 [3] was 25 nM.
